We go through 20 molecules from patent US20140107109A1, “AMINO-DIHYDROTHIAZINE AND AMINO-DIOXIDO DIHYDROTHIAZINE COMPOUNDS AS BETA-SECRETASE ANTAGONISTS AND METHODS OF USE” (Amgen Inc., priority 2012, published 2014).

Structures are written as SMILES. Like-named read-outs stand apart in the source and are kept apart here.

In test [1] the target is Beta Secretase enzyme (BACE1) (Homo sapiens, UniProt P56817). The experiment in a line: In vitro enzymatic BACE FRET assay. The format is biochemical. The settings on record: read-out: BACE1 FRET assay IC50. In short, it runs like this:
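BACE1 cleavage of a 50 nM fluorophore/quencher peptide FRET substrate ran for one hour in 0.05 M acetate pH 4.2, 10% DMSO, 100 uM genapol. Tris buffer raised pH to neutrality to stop the reaction before fluorescence was read (excitation 488 nm, […]).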

For test [2], the system named is Aβ40 in conditioned medium of cells stably expressing Amyloid Precursor Protein (APP). The experiment in a line: In vitro BACE cell-based assay (HEK cell assay), Aβ40 sandwich ELISA. The settings on record: Homo sapiens, HEK293. In short, it runs like this: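 APP-stably expressing cells (40K/well, grown 24 h in DMEM/10% FBS) were treated 24 h with compounds in 10-point dose response starting at 100 μM or 10 μM, 0.1% DMSO final. Secreted Aβ40 was measured by sandwich ELISA (pAb40 capture, biotinylated 6E10 detection, europium time-resolved fluorescence); IC50 from percent inhibition.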

The target of another test is T1, Cathepsin D (Cat D) (Homo sapiens, UniProt P07339).
T1 construct: Recombinant Cat D was expressed in CHO cells; made in house; host or cells: CHO cells
Description: In vitro enzymatic Cathepsin D (Cat D) FRET assay. The note with it: read-out: CatD IC50. The format is biochemical. In outline: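 Recombinant Cat D expressed in CHO cells, used at 9 nM and pre-incubated one hour with serially diluted inhibitor in DMSO. Peptide substrate carries a fluorophore and quencher flanking the cleavage site; reaction stopped with Tris buffer raising pH to neutrality, then fluorescence read.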

Beta Secretase enzyme (BACE1), sequence (P56817 46-501): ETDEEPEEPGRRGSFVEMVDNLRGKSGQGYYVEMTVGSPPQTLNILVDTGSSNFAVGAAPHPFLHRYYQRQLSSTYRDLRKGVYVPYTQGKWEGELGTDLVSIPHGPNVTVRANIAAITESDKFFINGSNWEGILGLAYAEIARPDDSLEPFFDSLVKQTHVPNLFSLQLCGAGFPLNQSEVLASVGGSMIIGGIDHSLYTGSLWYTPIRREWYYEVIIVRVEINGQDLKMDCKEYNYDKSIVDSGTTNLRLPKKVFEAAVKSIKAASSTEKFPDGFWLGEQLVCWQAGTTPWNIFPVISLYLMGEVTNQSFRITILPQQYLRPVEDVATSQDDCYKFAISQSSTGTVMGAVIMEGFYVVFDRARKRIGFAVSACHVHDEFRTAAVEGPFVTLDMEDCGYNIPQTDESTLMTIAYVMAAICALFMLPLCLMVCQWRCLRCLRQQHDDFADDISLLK
T1 sequence (P07339 65-412, species assumed): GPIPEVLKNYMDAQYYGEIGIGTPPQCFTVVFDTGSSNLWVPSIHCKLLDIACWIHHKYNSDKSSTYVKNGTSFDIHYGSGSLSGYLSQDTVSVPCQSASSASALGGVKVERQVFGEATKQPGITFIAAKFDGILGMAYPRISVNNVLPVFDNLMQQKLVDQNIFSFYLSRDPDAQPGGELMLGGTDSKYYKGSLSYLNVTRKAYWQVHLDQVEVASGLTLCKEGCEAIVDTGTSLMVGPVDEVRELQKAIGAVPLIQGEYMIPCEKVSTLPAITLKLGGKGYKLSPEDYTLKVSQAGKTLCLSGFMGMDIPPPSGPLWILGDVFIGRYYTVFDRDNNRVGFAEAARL

For the molecule `Cc1cc(C(F)F)cnc1C(=O)Nc1ccc(F)c([C@@]2(C)N=C(N)C3(CC3)S(=O)(=O)[C@@H]2F)c1` [Example 206, N-(3-((5S,6R)-8-amino-5-fluoro-6-methyl-4,4-dioxido-4-thia-7-azaspiro[2.5]oct-7-en-6-yl)-4-fluorophenyl)-5-(difluoromethyl)-3-methyl-2-pyridinecarboxamide], the IC50 – broadly, the midpoint of a concentration-inhibition curve – is 1.9 nM in test [1] (average IC50); 5.4 nM in test [2] (average IC50, HEK cells); 193000 nM on Cathepsin D (Cat D).

As to `Cc1cc(C(F)F)cnc1C(=O)Nc1ccc(F)c([C@@]2(C)N=C(N)C3(CC3)S(=O)(=O)[C@H]2F)c1` [Example 207, N-(3-((5R,6R)-8-amino-5-fluoro-6-methyl-4,4-dioxido-4-thia-7-azaspiro[2.5]oct-7-en-6-yl)-4-fluorophenyl)-5-(difluoromethyl)-3-methyl-2-pyridinecarboxamide], the IC50 was found to be 0.92 nM in test [1] (average IC50); 6.7 nM in test [2] (average IC50, HEK cells); 56100 nM on Cathepsin D (Cat D).

Take `COc1cnc2c(Nc3ccc(F)c([C@@]4(C)N=C(N)C5(CC5)S(=O)(=O)[C@H]4F)c3)nccc2n1` [Example 208, N-(3-((5R,6R)-8-amino-5-fluoro-6-methyl-4,4-dioxido-4-thia-7-azaspiro[2.5]oct-7-en-6-yl)-4-fluorophenyl)-2-methoxypyrido[3,4-b]pyrazin-5-amine]: the IC50 in test [1] (average IC50) is less than 2 nM; in test [2] (average IC50, HEK cells), 10.7 nM; on Cathepsin D (Cat D) it was 696000 nM.

Turning to `COc1cnc2c(Nc3ccc(F)c([C@@]4(C)N=C(N)C5(CC5)S(=O)(=O)[C@@H]4F)c3)nccc2n1` [Example 209, N-(3-((5S,6R)-8-amino-5-fluoro-6-methyl-4,4-dioxido-4-thia-7-azaspiro[2.5]oct-7-en-6-yl)-4-fluorophenyl)-2-methoxypyrido[3,4-b]pyrazin-5-amine], the IC50 in test [1] (average IC50) amounted to 8.5 nM; in test [2] (average IC50, HEK cells) it was 85.4 nM; at Cathepsin D (Cat D), 157000 nM.

As for `CC1(C)C(N)=N[C@](C)(c2cc(NC(=O)c3ccc(Cl)cc3)ccc2F)CS1(=O)=O` [Example 212, N-(3-((3R)-5-amino-3,6,6-trimethyl-1,1-dioxido-3,6-dihydro-2H-1,4-thiazin-3-yl)-4-fluorophenyl)-4-chlorobenzamide], the IC50 in test [1] (average IC50, enzyme assay) stood at 10.2 nM; in test [2] (average IC50, cell assay), 23.3 nM; on Cathepsin D (Cat D), 317000 nM.

In the case of `CC1(C)C(N)=N[C@](C)(c2cc(NC(=O)c3ccc(Cl)cc3F)ccc2F)CS1(=O)=O` [Example 213, N-(3-((3R)-5-amino-3,6,6-trimethyl-1,1-dioxido-3,6-dihydro-2H-1,4-thiazin-3-yl)-4-fluorophenyl)-4-chloro-2-fluorobenzamide], the IC50 was found to be 12.3 nM in test [1] (average IC50, enzyme assay); 29 nM in test [2] (average IC50, cell assay); 442000 nM at Cathepsin D (Cat D).

For `Cc1cc(Cl)cnc1C(=O)Nc1ccc(F)c([C@@]2(CF)CS(=O)(=O)C3(CC3)C(N)=N2)c1` [Example 215, N-(3-((6R)-8-amino-6-(fluoromethyl)-4,4-dioxido-4-thia-7-azaspiro[2.5]oct-7-en-6-yl)-4-fluorophenyl)-5-chloro-3-methyl-2-pyridinecarboxamide], the IC50 in test [1] (average IC50) was found to be 212 nM; in test [2] (average IC50, HEK cells) it was 903 nM; at Cathepsin D (Cat D) it was 432000 nM.

On to `Cc1cc(Cl)cnc1C(=O)Nc1ccc(F)c([C@]2(CF)CS(=O)(=O)C3(CC3)C(N)=N2)c1` [Example 216, N-(3-((6S)-8-amino-6-(fluoromethyl)-4,4-dioxido-4-thia-7-azaspiro[2.5]oct-7-en-6-yl)-4-fluorophenyl)-5-chloro-3-methyl-2-pyridinecarboxamide], for which the IC50 in test [1] (average IC50) worked out at 0.54 nM; in test [2] (average IC50, HEK cells), 4.4 nM; at Cathepsin D (Cat D), 132000 nM.

As to `Cc1cc(OC(F)F)cnc1C(=O)Nc1ccc(F)c([C@]2(CF)CS(=O)(=O)C3(CC3)C(N)=N2)c1` [Example 217, N-(3-((6S)-8-amino-6-(fluoromethyl)-4,4-dioxido-4-thia-7-azaspiro[2.5]oct-7-en-6-yl)-4-fluorophenyl)-5-(difluoromethoxy)-3-methyl-2-pyridinecarboxamide], the IC50 stood at 1.2 nM in test [1] (average IC50); 6.1 nM in test [2] (average IC50, HEK cells); 46800 nM on Cathepsin D (Cat D).

In the case of `Cc1cc(OC(F)F)cnc1C(=O)Nc1ccc(F)c([C@@]2(CF)CS(=O)(=O)C3(CC3)C(N)=N2)c1` [Example 218, N-(3-((6R)-8-amino-6-(fluoromethyl)-4,4-dioxido-4-thia-7-azaspiro[2.5]oct-7-en-6-yl)-4-fluorophenyl)-5-(difluoromethoxy)-3-methyl-2-pyridinecarboxamide], the IC50 is 150 nM in test [1] (average IC50); 830 nM in test [2] (average IC50, HEK cells); 637000 nM at Cathepsin D (Cat D).

Consider `COc1cnc2c(Nc3cnc(F)c([C@]4(C)CS(=O)(=O)C(C)(C)C(N)=N4)c3)ncc(F)c2c1` [Example 219, N-(5-((3R)-5-amino-3,6,6-trimethyl-1,1-dioxido-3,6-dihydro-2H-1,4-thiazin-3-yl)-6-fluoro-3-pyridinyl)-5-fluoro-3-methoxy-1,7-naphthyridin-8-amine], for which the IC50 came out at 1.44 nM in test [1] (average IC50, enzyme assay); 2.9 nM in test [2] (average IC50, cell assay); 39700 nM on Cathepsin D (Cat D).

With `CC1(C)C(N)=N[C@](C)(c2cc(Nc3ncc(F)c4cc(Cl)cnc34)cnc2F)CS1(=O)=O` [Example 220, N-(5-((3R)-5-amino-3,6,6-trimethyl-1,1-dioxido-3,6-dihydro-2H-1,4-thiazin-3-yl)-6-fluoro-3-pyridinyl)-3-chloro-5-fluoro-1,7-naphthyridin-8-amine], the IC50 was less than 2 nM in test [1] (average IC50, enzyme assay); 3.3 nM in test [2] (average IC50, cell assay); 15200 nM at Cathepsin D (Cat D).

For `CC1(C)C(N)=N[C@](C)(c2cc(Nc3ncc(F)c4cc(C#N)cnc34)cnc2F)CS1(=O)=O` [Example 221, 8-((5-((3R)-5-amino-3,6,6-trimethyl-1,1-dioxido-3,6-dihydro-2H-1,4-thiazin-3-yl)-6-fluoro-3-pyridinyl)amino)-5-fluoro-1,7-naphthyridine-3-carbonitrile], the IC50 was determined as 1.94 nM in test [1] (average IC50, enzyme assay); 5.8 nM in test [2] (average IC50, cell assay); 43100 nM at Cathepsin D (Cat D).

Turning to `COc1cnc2c(Nc3cnc(F)c([C@]4(C)CS(=O)(=O)C(C)(C)C(N)=N4)c3)nccc2n1` [Example 222, N-(5-((3R)-5-amino-3,6,6-trimethyl-1,1-dioxido-3,6-dihydro-2H-1,4-thiazin-3-yl)-6-fluoro-3-pyridinyl)-2-methoxypyrido[3,4-b]pyrazin-5-amine], the IC50 came to 2.59 nM in test [1] (average IC50, enzyme assay); 3.6 nM in test [2] (average IC50, cell assay); 280000 nM on Cathepsin D (Cat D).

`CC1(C)C(N)=N[C@](C)(c2cc(Nc3nccc4cc(Cl)cnc34)cnc2F)CS1(=O)=O` [Example 223, N-(5-((3R)-5-amino-3,6,6-trimethyl-1,1-dioxido-3,6-dihydro-2H-1,4-thiazin-3-yl)-6-fluoro-3-pyridinyl)-3-chloro-1,7-naphthyridin-8-amine]: the IC50 stood at 0.82 nM in test [1] (average IC50, enzyme assay); 5.4 nM in test [2] (average IC50, cell assay); 23800 nM at Cathepsin D (Cat D).

With `CC1(C)C(N)=N[C@](C)(c2cc(Nc3nccc4nc(C(F)(F)F)cnc34)cnc2F)CS1(=O)=O` [Example 224, N-(5-((3R)-5-amino-3,6,6-trimethyl-1,1-dioxido-3,6-dihydro-2H-1,4-thiazin-3-yl)-6-fluoro-3-pyridinyl)-2-(trifluoromethyl)pyrido[3,4-b]pyrazin-5-amine], the IC50 in test [1] (average IC50, enzyme assay) came to 16 nM; in test [2] (average IC50, cell assay) it was 39.9 nM; on Cathepsin D (Cat D) it was 457000 nM.

Consider `CC1(C)C(N)=N[C@](C)(c2cc(Nc3ncnc4cc(Cl)cnc34)cnc2F)CS1(=O)=O` [Example 225, N-(5-((3R)-5-amino-3,6,6-trimethyl-1,1-dioxido-3,6-dihydro-2H-1,4-thiazin-3-yl)-6-fluoro-3-pyridinyl)-7-chloropyrido[3,2-d]pyrimidin-4-amine], for which the IC50 worked out at 3.28 nM in test [1] (average IC50, enzyme assay); 12.2 nM in test [2] (average IC50, cell assay); 33000 nM at Cathepsin D (Cat D).

For the molecule `CC#CCOc1cnc2c(Nc3ccc(F)c([C@]4(C)CS(=O)(=O)[C@@](C)(F)C(N)=N4)c3)nccc2c1` [Example 226, N-(3-((3R,6R)-5-amino-6-fluoro-3,6-dimethyl-1,1-dioxido-3,6-dihydro-2H-1,4-thiazin-3-yl)-4-fluorophenyl)-3-(2-butyn-1-yloxy)-1,7-naphthyridin-8-amine], the IC50 in test [1] (average IC50, enzyme assay) is 0.74 nM; in test [2] (average IC50, cell assay), 5.74 nM; on Cathepsin D (Cat D) it was more than 400000 nM.

Turning to `C[C@@]1(c2cc(Nc3nccc4cc(Cl)cnc34)cnc2F)CS(=O)(=O)C2(CCC2)C(N)=N1` [Example 230, N-(5-((7R)-9-amino-7-methyl-5,5-dioxido-5-thia-8-azaspiro[3.5]non-8-en-7-yl)-6-fluoro-3-pyridinyl)-3-chloro-1,7-naphthyridin-8-amine], the IC50 came to 3.76 nM in test [1] (average IC50, enzyme assay); 18.8 nM in test [2] (average IC50, cell assay); 23200 nM on Cathepsin D (Cat D).

Turning to `COc1cnc2c(Nc3cnc(F)c([C@]4(C)CS(=O)(=O)C5(CCC5)C(N)=N4)c3)nccc2n1` [Example 231, N-(5-((7R)-9-amino-7-methyl-5,5-dioxido-5-thia-8-azaspiro[3.5]non-8-en-7-yl)-6-fluoro-3-pyridinyl)-2-methoxypyrido[3,4-b]pyrazin-5-amine], the IC50 in test [1] (average IC50, enzyme assay) came out at 6.41 nM; in test [2] (average IC50, cell assay), 18.1 nM; on Cathepsin D (Cat D) it was 163000 nM.
